# Measurements: patent US20240158370A1, “CK1 alpha AND DUAL CK1 alpha / GSPT1 DEGRADING COMPOUNDS” (Innovo Therapeutics, Inc., priority 2022, published 2024)
# Tests used:
# GSPT1 = GSPT1 (Homo sapiens, UniProt P15170+Q96SW2); test: HiBiT degradation assay, GSPT1, Procedure A; assay type: cell-based; design: HiBit-GSPT1 KI HEK293(LgBit) Cells; host or cells: HEK293(LgBit) knock-in cells
# In short: (§1)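 Luminescence from HiBiT lytic detection, read after 20 min shaking, gave DC50 and Ymin by 4-parameter fit. Before that, cells (1×10^6 cells/ml, DMEM+10% FBS) sat 6 h at 37° C on 10-point compound series (10 μM–0.005 μM, 0.1% DMSO).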
# CK1α = molecular target: T1, CK1α (Homo sapiens, UniProt P48729+Q96SW2); test: HiBiT degradation assay, CK1α, Procedure A; assay type: cell-based
# T1 construct: CSNK1A1-HiBit KI HEK293(LgBit) Cells; host or cells: HEK293(LgBit) knock-in cells
# In short: as §1
# T1 sequence (P48729 whole entry): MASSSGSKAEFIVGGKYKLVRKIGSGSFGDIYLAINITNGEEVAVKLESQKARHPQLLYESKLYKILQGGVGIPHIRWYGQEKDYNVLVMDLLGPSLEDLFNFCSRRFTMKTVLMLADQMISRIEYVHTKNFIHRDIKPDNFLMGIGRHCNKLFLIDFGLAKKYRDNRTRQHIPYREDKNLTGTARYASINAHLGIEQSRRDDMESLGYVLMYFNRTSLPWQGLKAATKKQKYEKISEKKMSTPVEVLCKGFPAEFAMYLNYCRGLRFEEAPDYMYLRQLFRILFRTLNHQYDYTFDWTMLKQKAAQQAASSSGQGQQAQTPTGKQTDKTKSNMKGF
# T1 sequence (Q96SW2 whole entry): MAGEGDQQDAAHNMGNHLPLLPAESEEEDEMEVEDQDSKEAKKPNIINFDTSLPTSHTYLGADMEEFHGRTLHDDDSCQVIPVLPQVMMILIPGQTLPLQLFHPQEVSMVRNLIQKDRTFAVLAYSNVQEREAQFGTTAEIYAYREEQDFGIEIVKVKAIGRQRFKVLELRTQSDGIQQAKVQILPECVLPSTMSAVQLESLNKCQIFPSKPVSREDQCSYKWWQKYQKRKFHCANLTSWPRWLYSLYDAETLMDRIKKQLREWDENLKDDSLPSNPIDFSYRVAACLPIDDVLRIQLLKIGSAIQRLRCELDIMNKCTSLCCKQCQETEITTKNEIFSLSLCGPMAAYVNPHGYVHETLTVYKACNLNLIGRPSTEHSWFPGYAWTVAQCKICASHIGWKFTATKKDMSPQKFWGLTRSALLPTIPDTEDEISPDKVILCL
# T1 sequence (Q16531 whole entry partner): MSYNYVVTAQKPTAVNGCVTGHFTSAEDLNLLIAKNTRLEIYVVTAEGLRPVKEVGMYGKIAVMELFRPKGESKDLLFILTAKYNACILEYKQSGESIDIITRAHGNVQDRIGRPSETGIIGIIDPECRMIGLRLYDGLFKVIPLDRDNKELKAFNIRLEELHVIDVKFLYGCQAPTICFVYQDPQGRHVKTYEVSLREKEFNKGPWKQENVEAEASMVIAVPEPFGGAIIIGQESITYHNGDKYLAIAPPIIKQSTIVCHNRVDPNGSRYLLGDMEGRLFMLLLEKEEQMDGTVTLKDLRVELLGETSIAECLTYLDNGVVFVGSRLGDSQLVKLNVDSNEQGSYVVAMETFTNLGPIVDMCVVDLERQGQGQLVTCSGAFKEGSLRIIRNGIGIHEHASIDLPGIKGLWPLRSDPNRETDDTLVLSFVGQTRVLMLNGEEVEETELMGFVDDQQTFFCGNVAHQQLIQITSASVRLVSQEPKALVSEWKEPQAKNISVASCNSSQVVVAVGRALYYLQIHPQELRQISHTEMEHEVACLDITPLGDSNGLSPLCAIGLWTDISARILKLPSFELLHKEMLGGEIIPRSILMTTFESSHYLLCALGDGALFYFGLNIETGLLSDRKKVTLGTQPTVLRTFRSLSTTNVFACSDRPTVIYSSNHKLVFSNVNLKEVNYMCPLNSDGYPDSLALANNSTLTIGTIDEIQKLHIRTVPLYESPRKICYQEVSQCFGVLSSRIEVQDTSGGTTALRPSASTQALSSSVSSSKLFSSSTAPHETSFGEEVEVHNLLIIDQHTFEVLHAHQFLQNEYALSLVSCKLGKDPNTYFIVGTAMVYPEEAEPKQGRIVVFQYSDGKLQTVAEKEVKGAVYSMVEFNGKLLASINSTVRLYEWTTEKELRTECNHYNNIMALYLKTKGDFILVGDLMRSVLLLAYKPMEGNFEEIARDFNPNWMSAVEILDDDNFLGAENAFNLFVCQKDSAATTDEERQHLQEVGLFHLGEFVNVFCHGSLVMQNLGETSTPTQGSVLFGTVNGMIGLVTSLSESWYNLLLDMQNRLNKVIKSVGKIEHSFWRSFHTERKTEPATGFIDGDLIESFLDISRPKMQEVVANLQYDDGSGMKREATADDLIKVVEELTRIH
# GSPT1, sequence (P15170 whole entry): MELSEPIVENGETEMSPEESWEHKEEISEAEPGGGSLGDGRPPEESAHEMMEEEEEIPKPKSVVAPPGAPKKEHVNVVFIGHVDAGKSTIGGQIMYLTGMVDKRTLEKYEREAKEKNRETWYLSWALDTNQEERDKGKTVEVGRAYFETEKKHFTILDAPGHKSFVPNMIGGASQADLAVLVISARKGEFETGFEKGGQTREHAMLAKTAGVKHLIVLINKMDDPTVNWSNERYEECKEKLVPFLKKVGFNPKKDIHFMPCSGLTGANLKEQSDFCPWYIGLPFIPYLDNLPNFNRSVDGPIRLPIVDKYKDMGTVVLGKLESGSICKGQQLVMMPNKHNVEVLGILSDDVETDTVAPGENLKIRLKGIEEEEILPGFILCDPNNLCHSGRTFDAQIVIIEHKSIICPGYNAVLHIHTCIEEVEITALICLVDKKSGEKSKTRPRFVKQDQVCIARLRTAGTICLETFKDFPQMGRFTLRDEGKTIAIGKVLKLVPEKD
# GSPT1, sequence (Q96SW2 whole entry): as the sequence (Q96SW2 whole entry) above
# GSPT1, sequence (Q16531 whole entry partner): as the sequence (Q16531 whole entry partner) above
Compound,DC50 (GSPT1; six hours incubation),GSPT1 Ymin (GSPT1; six hours incubation),CK1α Ymin (CK1α; six hours incubation),DC50 (CK1α; six hours incubation),DC50 (GSPT1; six hours),GSPT1 Ymin (GSPT1; six hours),CK1α Ymin (CK1α; six hours),DC50 (CK1α; six hours)
Cn1cnc(-c2ccc3c(c2)CN(C2CCC(=O)NC2=O)C3=O)c1-c1ccc(N2CCOCC2)cc1 (stereo not shown) [Example 353],< 25 nM,F (F = >75-100% remaining),C (C = 0-10% remaining),< 25 nM,–,–,–,–
Cn1cnc(-c2ccc3c(c2)CN(C2CCC(=O)NC2=O)C3=O)c1-c1ccc(S(=O)(=O)N2CCCC2)cc1 (stereo not shown) [Example 354],< 25 nM,F (F = >75-100% remaining),E (E = >25-75% remaining),< 25 nM,–,–,–,–
CN1CCN(c2ccc(-c3c(-c4ccc5c(c4)CN(C4CCC(=O)NC4=O)C5=O)ncn3C)cc2)CC1 (stereo not shown) [Example 355],≥ 25 nM,F (F = >75-100% remaining),E (E = >25-75% remaining),< 25 nM,–,–,–,–
Cn1cnc(-c2ccc3c(c2)CN(C2CCC(=O)NC2=O)C3=O)c1-c1ccc(NC(=O)c2ccccc2)cc1 (stereo not shown) [Example 356],≥ 25 nM,F (F = >75-100% remaining),F (F = >75-100% remaining),≥ 25 nM,–,–,–,–
CN1CCN(C(=O)c2cccc(-c3c(-c4ccc5c(c4)CN(C4CCC(=O)NC4=O)C5=O)ncn3C)c2)CC1 (stereo not shown) [Example 357],≥ 25 nM,F (F = >75-100% remaining),C (C = 0-10% remaining),< 25 nM,–,–,–,–
COc1ccc(-c2c(-c3ccc4c(c3)CN(C3CCC(=O)NC3=O)C4=O)ncn2C)cc1OCc1ccccc1 (stereo not shown) [Example 358],≥ 25 nM,F (F = >75-100% remaining),E (E = >25-75% remaining),< 25 nM,–,–,–,–
Cn1cnc(-c2ccc3c(c2)CN(C2CCC(=O)NC2=O)C3=O)c1-c1ccc(OCCCN2CCOCC2)cc1 (stereo not shown) [Example 359],≥ 25 nM,F (F = >75-100% remaining),E (E = >25-75% remaining),< 25 nM,–,–,–,–
Cn1ncc(-c2ccc3c(c2)CN(C2CCC(=O)NC2=O)C3=O)c1-c1cccnc1 (stereo not shown) [Example 360],≥ 25 nM,F (F = >75-100% remaining),D (D = >10- 25% remaining),< 25 nM,–,–,–,–
Cn1ncc(-c2ccc3c(c2)CN(C2CCC(=O)NC2=O)C3=O)c1-c1ccncc1 (stereo not shown) [Example 361],≥ 25 nM,F (F = >75-100% remaining),E (E = >25-75% remaining),< 25 nM,–,–,–,–
Cn1ncc(-c2ccc3c(c2)CN(C2CCC(=O)NC2=O)C3=O)c1-c1cncnc1 (stereo not shown) [Example 362],≥ 25 nM,F (F = >75-100% remaining),E (E = >25-75% remaining),< 25 nM,–,–,–,–
Cn1ccc(-c2c(-c3ccc4c(c3)CN(C3CCC(=O)NC3=O)C4=O)cnn2C)c1 (stereo not shown) [Example 363],< 25 nM,F (F = >75-100% remaining),C (C = 0-10% remaining),< 25 nM,–,–,–,–
Cc1occc1-c1c(-c2ccc3c(c2)CN(C2CCC(=O)NC2=O)C3=O)cnn1C (stereo not shown) [Example 364],≥ 25 nM,F (F = >75-100% remaining),D (D = >10- 25% remaining),≥ 25 nM,–,–,–,–
Cc1ccc(-c2c(-c3ccc4c(c3)CN(C3CCC(=O)NC3=O)C4=O)cnn2C)o1 (stereo not shown) [Example 365],≥ 25 nM,F (F = >75-100% remaining),D (D = >10- 25% remaining),≥ 25 nM,–,–,–,–
Cn1cc(-c2c(-c3ccc4c(c3)CN(C3CCC(=O)NC3=O)C4=O)cnn2C)cn1 (stereo not shown) [Example 366],≥ 25 nM,F (F = >75-100% remaining),C (C = 0-10% remaining),< 25 nM,–,–,–,–
Cc1ccc(-c2c(-c3ccc4c(c3)CN(C3CCC(=O)NC3=O)C4=O)cnn2C)cn1 (stereo not shown) [Example 367],< 25 nM,F (F = >75-100% remaining),C (C = 0-10% remaining),< 25 nM,–,–,–,–
Cc1cc(-c2c(-c3ccc4c(c3)CN(C3CCC(=O)NC3=O)C4=O)cnn2C)ccn1 (stereo not shown) [Example 368],< 25 nM,F (F = >75-100% remaining),E (E = >25-75% remaining),< 25 nM,–,–,–,–
Cc1cncc(-c2c(-c3ccc4c(c3)CN(C3CCC(=O)NC3=O)C4=O)cnn2C)c1 (stereo not shown) [Example 369],≥ 25 nM,F (F = >75-100% remaining),F (F = >75-100% remaining),≥ 25 nM,–,–,–,–
Cn1ncc(-c2ccc3c(c2)CN(C2CCC(=O)NC2=O)C3=O)c1-c1ccc(N)nc1 (stereo not shown) [Example 370],≥ 25 nM,–,E (E = >25-75% remaining),≥ 25 nM,–,–,–,–
Cn1ncc(-c2ccc3c(c2)CN(C2CCC(=O)NC2=O)C3=O)c1-c1cncc(N)c1 (stereo not shown) [Example 371],≥ 25 nM,F (F = >75-100% remaining),D (D = >10- 25% remaining),≥ 25 nM,–,–,–,–

Compound,DC50 (GSPT1; six hours incubation),GSPT1 Ymin (GSPT1; six hours incubation),CK1α Ymin (CK1α; six hours incubation),DC50 (CK1α; six hours incubation),DC50 (GSPT1; six hours),GSPT1 Ymin (GSPT1; six hours),CK1α Ymin (CK1α; six hours),DC50 (CK1α; six hours)
Cc1c(-c2c(-c3ccc4c(c3)CN(C3CCC(=O)NC3=O)C4=O)cnn2C)cnn1C (stereo not shown) [Example 372],≥ 25 nM,F (F = >75-100% remaining),E (E = >25-75% remaining),≥ 25 nM,–,–,–,–
Cc1nn(C)cc1-c1c(-c2ccc3c(c2)CN(C2CCC(=O)NC2=O)C3=O)cnn1C (stereo not shown) [Example 373],≥ 25 nM,F (F = >75-100% remaining),E (E = >25-75% remaining),≥ 25 nM,–,–,–,–
CN1N=CC(c2ccc3c(c2)CN(C2CCC(=O)NC2=O)C3=O)C1c1cnc(C#N)nc1 (stereo not shown) [Example 374],≥ 25 nM,F (F = >75-100% remaining),F (F = >75-100% remaining),≥ 25 nM,–,–,–,–
Cn1cc(-c2c(-c3ccc4c(c3)CN(C3CCC(=O)NC3=O)C4=O)cnn2C)cc1C#N (stereo not shown) [Example 375],≥ 25 nM,F (F = >75-100% remaining),D (D = >10- 25% remaining),< 25 nM,–,–,–,–
CN1N=CC(c2ccc3c(c2)CN(C2CCC(=O)NC2=O)C3=O)C1c1cnn(C2CC2)c1 (stereo not shown) [Example 376],≥ 25 nM,F (F = >75-100% remaining),D (D = >10- 25% remaining),< 25 nM,–,–,–,–
COc1ncccc1-c1c(-c2ccc3c(c2)CN(C2CCC(=O)NC2=O)C3=O)cnn1C (stereo not shown) [Example 377],≥ 25 nM,F (F = >75-100% remaining),E (E = >25-75% remaining),< 25 nM,–,–,–,–
COc1ccc(-c2c(-c3ccc4c(c3)CN(C3CCC(=O)NC3=O)C4=O)cnn2C)cn1 (stereo not shown) [Example 378],–,–,–,–,≥ 25 nM,F (F = >75-100% remaining),E (E = >25-75% remaining),< 25 nM
Cn1ncc(-c2ccc3c(c2)CN(C2CCC(=O)NC2=O)C3=O)c1-c1cc2ccccc2[nH]1 (stereo not shown) [Example 380],–,–,–,–,≥ 25 nM,F (F = >75-100% remaining),E (E = >25-75% remaining),< 25 nM
Cn1ncc(-c2ccc3c(c2)CN(C2CCC(=O)NC2=O)C3=O)c1-c1ccc2occc2c1 (stereo not shown) [Example 381],–,–,–,–,≥ 25 nM,F (F = >75-100% remaining),D (D = >10- 25% remaining),< 25 nM
Cn1ncc(-c2ccc3c(c2)CN(C2CCC(=O)NC2=O)C3=O)c1-c1ccc2nccn2c1 (stereo not shown) [Example 382],–,–,–,–,≥ 25 nM,F (F = >75-100% remaining),D (D = >10- 25% remaining),≥ 25 nM
Cn1ncc(-c2ccc3c(c2)CN(C2CCC(=O)NC2=O)C3=O)c1-c1cnn2ccccc12 (stereo not shown) [Example 383],–,–,–,–,≥ 25 nM,F (F = >75-100% remaining),E (E = >25-75% remaining),< 25 nM
CC(C)Cn1cc(-c2c(-c3ccc4c(c3)CN(C3CCC(=O)NC3=O)C4=O)cnn2C)cn1 (stereo not shown) [Example 384],–,–,–,–,< 25 nM,F (F = >75-100% remaining),E (E = >25-75% remaining),≥ 25 nM
Cn1ncc(-c2ccc3c(c2)CN(C2CCC(=O)NC2=O)C3=O)c1-c1ccc2cccnc2c1 (stereo not shown) [Example 385],–,–,–,–,≥ 25 nM,F (F = >75-100% remaining),E (E = >25-75% remaining),< 25 nM
Cn1ncc(-c2ccc3c(c2)CN(C2CCC(=O)NC2=O)C3=O)c1-c1ccc2ccn(C)c2c1 (stereo not shown) [Example 386],–,–,–,–,≥ 25 nM,F (F = >75-100% remaining),E (E = >25-75% remaining),< 25 nM
Cn1ncc(-c2ccc3c(c2)CN(C2CCC(=O)NC2=O)C3=O)c1-c1ccc2c(ccn2C)c1 (stereo not shown) [Example 387],–,–,–,–,≥ 25 nM,F (F = >75-100% remaining),D (D = >10- 25% remaining),< 25 nM
Cn1ncc(-c2ccc3c(c2)CN(C2CCC(=O)NC2=O)C3=O)c1-c1cnn(CC(F)F)c1 (stereo not shown) [Example 388],–,–,–,–,≥ 25 nM,F (F = >75-100% remaining),E (E = >25-75% remaining),≥ 25 nM
Cn1ncc(-c2ccc3c(c2)CN(C2CCC(=O)NC2=O)C3=O)c1-c1ccc2cnn(C)c2c1 (stereo not shown) [Example 389],–,–,–,–,≥ 25 nM,F (F = >75-100% remaining),E (E = >25-75% remaining),< 25 nM
Cn1ncc(-c2ccc3c(c2)CN(C2CCC(=O)NC2=O)C3=O)c1-c1cnc2c(ccn2C)c1 (stereo not shown) [Example 390],–,–,–,–,≥ 25 nM,F (F = >75-100% remaining),F (F = >75-100% remaining),< 25 nM
Cc1nc2ccc(-c3c(-c4ccc5c(c4)CN(C4CCC(=O)NC4=O)C5=O)cnn3C)cc2[nH]1 (stereo not shown) [Example 391],–,–,–,–,≥ 25 nM,F (F = >75-100% remaining),C (C = 0-10% remaining),≥ 25 nM
